Test results reported in ChEMBL document CHEMBL1201862, “PubChem BioAssay data set” (2004).
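Test compounds were applied to cells in 96-well plates for 48 hours at 5 doses. The concentration for 50% growth inhibition is given as GI50.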 Calls of active or inactive are those of the source. Rule as the data show it: active = GI50 up to about 1.1 µM and inactive = higher.

Legend:
Assay in all cases: NCI anticancer screen, dose series, 48 h
DMS-114 = test system: DMS-114
HOP-18 = test system: HOP-18
DLD-1 = test system: DLD-1
KM-20L2 = test system: KM-20L2
DMS-273 = test system: DMS-273
RXF 631 = test system: RXF 631
SNB-78 = test system: SNB-78
M19-MEL = test system: M19-MEL

Measured: GI50

CC1(C)CC2CC(CC(C)(C)C2=O)C1=O
inactive: DMS-114 > 100 µM | HOP-18 > 100 µM | DLD-1 > 100 µM | KM-20L2 > 100 µM | DMS-273 > 100 µM | RXF 631 > 100 µM | SNB-78 > 100 µM | M19-MEL > 100 µM

O=C(O)CSc1nnc(Cc2ccccc2)[nH]1
inactive: DMS-114 > 100 µM | HOP-18 > 100 µM | DLD-1 > 100 µM | RXF 631 > 100 µM | SNB-78 > 100 µM | M19-MEL > 100 µM

CCOc1cccc2ccc[n+](CC)c12
inactive: DMS-114 32.7 µM | HOP-18 > 100 µM | DLD-1 > 100 µM | KM-20L2 52.2 µM | DMS-273 35.8 µM | RXF 631 > 100 µM | M19-MEL 41 µM

CC1=NN(C(=O)CC(=O)Nc2ccccc2)C(=O)C1/N=N/c1ccc(S(N)(=O)=O)cc1 (centres undefined)
inactive: DMS-114 63.8 µM | HOP-18 > 100 µM | DLD-1 95.1 µM | KM-20L2 > 100 µM | DMS-273 63.5 µM | RXF 631 91.6 µM | SNB-78 88.9 µM

O=C(c1ccccc1)N1CCc2c([nH]c3ccccc23)C1
inactive: DMS-114 20.4 µM | HOP-18 52.6 µM | DLD-1 64.7 µM | KM-20L2 54.1 µM | DMS-273 30.7 µM | RXF 631 > 100 µM | M19-MEL 36.8 µM

BrC1=CC=C2NC=CC3=CC=NC1C32 (centres undefined)
inactive: DMS-114 14 µM | HOP-18 14.1 µM | DLD-1 19 µM | KM-20L2 19.7 µM | DMS-273 7.14 µM | RXF 631 27.2 µM | SNB-78 29.6 µM | M19-MEL 14.1 µM

CC(=O)Oc1cc2c(=O)oc3c(OC(C)=O)c(OC(C)=O)c(OC(C)=O)c4c(=O)oc(c1OC(C)=O)c2c34
inactive: DMS-114 21.6 µM | HOP-18 32.1 µM | DLD-1 > 100 µM | KM-20L2 35.3 µM | DMS-273 > 100 µM | RXF 631 25.4 µM | SNB-78 39.4 µM | M19-MEL 17.9 µM

Cc1cccc(C(C)C)c1NC(=O)C(=O)CC(=O)c1c(C)[n+]([O-])c2ccccc2[n+]1[O-]
inactive: DMS-114 16.5 µM | HOP-18 96.4 µM | KM-20L2 37.6 µM | DMS-273 33.8 µM | RXF 631 18.1 µM | SNB-78 49 µM | M19-MEL 19.8 µM

CC#C[I+]c1ccccc1
inactive: DMS-114 13.2 µM | HOP-18 16.6 µM | DLD-1 14.3 µM | KM-20L2 17 µM | DMS-273 13.1 µM | RXF 631 31.1 µM | SNB-78 22.7 µM | M19-MEL 17.8 µM

COC(=O)C1=C(O)c2cc(OC)c(OC)cc2C(c2ccc(OC)c(OC)c2)C1 (centres undefined)
inactive: DMS-114 > 100 µM | HOP-18 > 100 µM | DLD-1 44 µM | KM-20L2 86.7 µM | DMS-273 67.3 µM | RXF 631 49.1 µM | SNB-78 > 100 µM | M19-MEL > 100 µM
